# In ChEMBL document CHEMBL4020789, “Development of 5-hydroxypyrazole derivatives as reversible inhibitors of lysine specific demethylase 1” (Bioorg Med Chem Lett, 2017):
# Assays:
# [1] = Apparent permeability of the compound across apical side to basolateral side in human Caco2 cells; type: ADME, cell-based; conditions: Caco-2
# [2] = Intrinsic clearance in human microsomes assessed […]; type: ADME, Microsome
# [3] = Half life in human microsomes; type: ADME, Microsome
# [4] = Half life in mouse hepatocytes; type: ADME, cell-based, Hepatocyte
# [5] = biological target: Voltage-gated inwardly rectifying potassium channel KCNH2 (Homo sapiens, UniProt Q12809); experiment: Inhibition of human ERG by patch clamp assay
# [6] = Clearance in mouse; type: ADME, organism-based; conditions: in vivo
# [7] = Volume of distribution in mouse; type: ADME, organism-based; conditions: in vivo
# Mus musculus = experiment: AUC in iv dosed mouse; type: ADME, organism-based; conditions: in vivo
# [8] = Half life in iv dosed mouse; type: ADME, organism-based; conditions: in vivo
# [9] = Half life in po dosed mouse; type: ADME, organism-based; conditions: in vivo
# [10] = Fraction unbound in mouse; type: ADME, organism-based; conditions: in vivo
# [11] = Oral bioavailability in mouse; type: ADME, organism-based; conditions: in vivo
# Chain of Voltage-gated inwardly rectifying potassium channel KCNH2 (Q12809 whole entry): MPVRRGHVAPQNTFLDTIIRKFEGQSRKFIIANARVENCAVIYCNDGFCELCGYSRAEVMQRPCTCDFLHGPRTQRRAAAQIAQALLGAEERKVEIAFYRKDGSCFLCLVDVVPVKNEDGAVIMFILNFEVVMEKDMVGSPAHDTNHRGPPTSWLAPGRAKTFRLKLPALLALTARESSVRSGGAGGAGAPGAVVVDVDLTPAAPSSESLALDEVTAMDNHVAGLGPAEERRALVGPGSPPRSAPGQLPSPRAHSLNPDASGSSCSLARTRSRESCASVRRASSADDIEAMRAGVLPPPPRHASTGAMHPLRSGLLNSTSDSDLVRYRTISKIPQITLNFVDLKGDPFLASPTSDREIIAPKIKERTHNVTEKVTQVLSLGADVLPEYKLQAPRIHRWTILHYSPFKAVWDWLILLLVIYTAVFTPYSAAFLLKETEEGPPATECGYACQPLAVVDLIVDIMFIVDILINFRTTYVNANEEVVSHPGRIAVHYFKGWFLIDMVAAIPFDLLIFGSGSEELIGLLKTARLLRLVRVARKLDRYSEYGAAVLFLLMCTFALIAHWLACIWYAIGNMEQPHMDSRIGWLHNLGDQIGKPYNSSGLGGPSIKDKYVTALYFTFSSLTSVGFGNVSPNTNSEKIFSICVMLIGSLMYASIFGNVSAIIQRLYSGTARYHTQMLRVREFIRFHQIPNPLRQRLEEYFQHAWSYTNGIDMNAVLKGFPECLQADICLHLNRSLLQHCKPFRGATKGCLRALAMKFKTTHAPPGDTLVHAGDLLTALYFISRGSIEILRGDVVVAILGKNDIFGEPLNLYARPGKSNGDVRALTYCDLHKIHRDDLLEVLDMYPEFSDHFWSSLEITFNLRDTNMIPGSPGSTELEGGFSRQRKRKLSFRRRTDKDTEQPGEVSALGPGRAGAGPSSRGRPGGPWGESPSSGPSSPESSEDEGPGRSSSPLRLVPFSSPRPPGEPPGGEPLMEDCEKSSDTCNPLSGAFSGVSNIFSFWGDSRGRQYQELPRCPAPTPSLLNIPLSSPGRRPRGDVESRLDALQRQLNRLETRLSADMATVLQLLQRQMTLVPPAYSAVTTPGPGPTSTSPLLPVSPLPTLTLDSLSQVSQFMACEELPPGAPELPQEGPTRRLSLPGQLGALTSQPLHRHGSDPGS
Structure (SMILES),Papp A→B [1] [×10⁻⁶ cm/s],CL [2] [µL/min],half-life [3] [min],half-life [4] [min],IC50 [5] [µM],clearance [6] [mL/min/kg],Vd [7] [L/kg],AUC (Mus musculus) [µg/h/mL],half-life [8] [min],half-life [9] [min],fraction unbound [10],bioavailability [11] [%]
N#Cc1ccc(-n2nc(C(=O)N3CCC[C@@H](N)C3)cc2OCC(O)C(F)(F)F)cc1 (some centres undefined),< 0.1,5.6,250,,,,,,,,,
Cc1cc(COc2cc(C(=O)N3CCC[C@@H](N)C3)nn2-c2ccc(C#N)cc2)on1,0.73,6.91,201,68,,,,,,,,
Cc1ccc(-c2ncc(OC[C@H]3CCNC3)cc2-c2ccc(C#N)cc2)cc1,,,,,3,,,,,,,
CCc1cc(COc2cc(C(=O)N3CCC[C@@H](N)C3)nn2-c2ccc(C#N)cc2)on1,0.415,5.6,250,121,,45.7,3.1,0.405,54,78,0.19,38
